Reference: US20160242414A1, “SAFENED HERBICIDAL COMPOSITIONS CONTAINING HALAUXIFEN OR 4-AMINO-3-CHLORO-5-FLUORO-6-(4-CHLORO-2-FLUORO-3-METHOXYPHENYL) PYRIDINE-2-CARBOXYLIC ACID AND METHODS OF USE THEREOF IN TURF” (Dow AgroSciences LLC, priority 2015, published 2016)

How the values were obtained:
[1] = tested on: perennial ryegrass (LOLPE); test: Postemergence turf injury field trial, perennial ryegrass, with Activator 90 adjuvant
Experimental: (§1) For the ryegrass and tall fescue experiments, research trials were conducted in Indiana at the William H Daniel Turfgrass Research center in West Lafayette, Ind. on well established 10 year old stands of perennial ryegrass and tall fescue that were maintained as a home lawn with regular fertilization, irrigation and a 7.5 cm mowing height. To begin the trial, the research areas were sub-divided into 3 replications of 2.3 m^2 plots in a completely randomized block design for each grass species and spray mixtures were prepared just prior to the treatment by mixing the formulations with water.
Herbicide treatments were applied to ryegrass and tall fescue turfgrass plots in spray applications that included the spray adjuvant Activator 90 at 0.25% (v/v). The plots were treated with a hand held CO2 backpack sprayer equipped with a 3 liter bottle that delivered 804 liters/ha of spray to each plot using a flat fan nozzle. No irrigation, rainfall or mowing occurred until 24 hours after the application. The temperature at the time of the application was 24° C. and the wind speed averaged 4.8 km/hr. There was no cloud cover during the application and the soil was moist. Visual evaluations were made of turf injury for each plot on a 0%-100% scale where 0%=no injury and 100%=death at 0, 7, 14, 28 and 42 days after the application.
The following equation was used to calculate the expected activity of mixtures containing two active ingredients, A and B:
Expected=A+B−(A×B/100) • A=observed efficacy of active ingredient A at the same concentration as used in the mixture; • B=observed efficacy of active ingredient B at the same concentration as used in the mixture.

tall fescue (FESAR) = test: Postemergence turf injury field trial, tall fescue, with Activator 90 adjuvant; details: 28 days after application
Experimental: as §1
Herbicide treatments were applied to ryegrass and tall fescue turfgrass plots in spray applications that included the spray adjuvant Activator 90 at 0.25% (v/v). The plots were treated with a hand held CO2 backpack sprayer equipped with a 3 liter bottle that delivered 804 liters/ha of spray to each plot using a flat fan nozzle. No irrigation, rainfall or mowing occurred until 24 hours after the application. The temperature at the time of the application was 24° C. and the wind speed averaged 4.8 km/hr. There was no cloud cover during the application and the soil was moist. Visual evaluations were made of turf injury for each plot on a 0%-100% scale where 0%=no injury and 100%=death at 0, 7, 14, 28 and 42 days after the application. […]

CNC.O=C(O)COc1ccc(Cl)cc1Cl [2,4-D DMA, 2,4-D dimethyl ammonium]
Observed Injury ([1]; 28 days after application, 2,4-D DMA 840 g ae/ha): 3%
Observed Injury ([1]; 28 days after application, 2,4-D DMA 1120 g ae/ha): 7%
Observed Injury ([1]; 28 days after application, 2,4-D DMA 1680 g ae/ha): 0%
Observed Injury ([1]; 28 days after application, 2,4-D DMA 2520 g ae/ha): 10%
Observed Injury ([1]; 42 days after application, 2,4-D DMA 840 g ae/ha): 0%
Observed Injury ([1]; 42 days after application, 2,4-D DMA 1120 g ae/ha): 0%
Observed Injury ([1]; 42 days after application, 2,4-D DMA 1680 g ae/ha): 0%
Observed Injury ([1]; 42 days after application, 2,4-D DMA 2520 g ae/ha): 0%

CNC.COc1c(Cl)ccc(Cl)c1C(=O)O [Dicamba DMA, dicamba dimethyl ammonium]
Observed Injury ([1]; 28 days after application, dicamba DMA 280 g ae/ha): 7%
Observed Injury (tall fescue (FESAR); dicamba DMA 280 g ae/ha): 0%

COC(=O)c1nc(-c2ccc(Cl)c(OC)c2F)cc(N)c1Cl [Halauxifen-Methyl, halauxifen-methyl]
Observed Injury ([1]; 28 days after application, halauxifen-methyl 15 g ae/ha, 0%=no injury, 100%=death): 23%
Observed Injury ([1]; 28 days after application, halauxifen-methyl 30 g ae/ha): 33%
Observed Injury ([1]; 28 days after application, halauxifen-methyl 45 g ae/ha): 40%
Observed Injury ([1]; 42 days after application, halauxifen-methyl 15 g ae/ha): 8%
Observed Injury ([1]; 42 days after application, halauxifen-methyl 30 g ae/ha): 12%
Observed Injury ([1]; 42 days after application, halauxifen-methyl 45 g ae/ha): 35%
Observed Injury (tall fescue (FESAR); halauxifen-methyl 30 g ae/ha): 32%
